Data taken from ChEMBL document CHEMBL1770129, “Total synthesis of solamargine” (Bioorg Med Chem Lett, 2011).

Tests used:
H9c2 = assay: Cytotoxicity against rat H9c2 cells by MTT assay; format: cell-based
A549 = assay: Cytotoxicity against human A549 cells by MTT assay; format: functional, cell-based
[1] = Cytotoxicity against human U87 cells by MTT assay; format: functional, cell-based, U-87MG ATCC; settings: U-87 MG
HeLa = assay: Cytotoxicity against human HeLa cells by MTT assay; format: functional, cell-based
MCF7 = assay: Cytotoxicity against human MCF7 cells by MTT assay; format: functional, cell-based
K562 = assay: Cytotoxicity against human K562 cells by MTT assay; format: functional, cell-based
HepG2 = assay: Cytotoxicity against human HepG2 cells by MTT assay; format: functional, cell-based
[2] = Cytotoxicity against human HL-7702 by MTT assay; settings: L02
HCT-116 = assay: Cytotoxicity against human HCT116 cells by MTT assay; format: functional, cell-based

Question: Which results are given for `C[C@@H]1CC[C@@]2(NC1)O[C@H]1C[C@H]3[C@@H]4CC=C5C[C@@H](O[C@@H]6O[C@H](CO)[C@@H](O[C@@H]7O[C@@H](C)[C@H](O)[C@@H](O)[C@H]7O)[C@H](O)[C@H]6O[C@@H]6O[C@@H](C)[C@H](O)[C@@H](O)[C@H]6O)CC[C@]5(C)[C@H]4CC[C@]3(C)[C@H]1[C@@H]2C` [SOLAMARGINE]?
Answer: IC50 (H9c2): > 20 µM; IC50 (A549): 8 µM; IC50 [1]: 3.2 µM; IC50 (HeLa): 6 µM; IC50 (MCF7): 2100 nM; IC50 (K562): 5.2 µM; IC50 (HepG2): 2500 nM; IC50 [2]: 13.5 µM; IC50 (HCT-116): 3.8 µM
